Assay results from paper PMC9143880, “Improving Antimicrobial Activity and Physico-Chemical Properties by Isosteric Replacement of 2-Aminothiazole with 2-Aminooxazole” (Pharmaceuticals, 2022).
In brackets after ≈: the same amount, converted by molar mass. Where two headings read alike, the source gives them in different places.

Tests used:
[1] = test system: Trichophyton interdigitale CCM 8377 (ATCC 9533); test: Antifungal microdilution broth (EUCAST); details: Trichophyton interdigitale, 72 h, read-out: MIC TI
[2] = test system: M. avium DSM 44156 (ATCC 25291); test: Antimycobacterial MIC, microdilution broth / resazurin; assay type: cell-based, Mycobacterium avium; details: for MIC: Mycobacterium avium, read-out: MIC M. avium
[3] = test system: Candida albicans CCM 8320 (ATCC 24433); test: Antifungal microdilution broth (EUCAST); details: Candida albicans, 24 h, read-out: MIC CA
[4] = test system: M. aurum DSM 43999 (ATCC 23366); test: Antimycobacterial MIC, microdilution broth / resazurin; assay type: cell-based; details: Mycolicibacterium aurum, read-out: MIC M. aurum
[5] = test system: Staphylococcus epidermidis CCM 4418 (ATCC 12228); test: Antibacterial microdilution broth (EUCAST); assay type: cell-based; details: Staphylococcus epidermidis; 24h incubation; read-out: MIC SE
[6] = test system: M. smegmatis DSM 43465 (ATCC 607); test: Antimycobacterial MIC, microdilution broth / resazurin; assay type: cell-based; details: Mycolicibacterium smegmatis; resazurin after 48 h; read-out: MIC M. smegmatis
[7] = test system: Acinetobacter baumannii DSM 30007 (ATCC 19606); test: Antibacterial microdilution broth (EUCAST); assay type: cell-based; details: Acinetobacter baumannii; 24h incubation; read-out: MIC AB
[8] = test system: Pseudomonas aeruginosa CCM 3955 (ATCC 27853); test: Antibacterial microdilution broth (EUCAST); assay type: cell-based; details: Pseudomonas aeruginosa; 72h incubation; read-out: MIC PA
[9] = test system: Candida tropicalis CCM 8264 (ATCC 750); test: Antifungal microdilution broth (EUCAST); details: Candida tropicalis, 24 h, read-out: MIC CT
[10] = test system: Candida parapsilosis CCM 8260 (ATCC 22019); test: Antifungal microdilution broth (EUCAST); details: Lodderomyces parapsilosis, 24 h, read-out: MIC CP
[11] = test system: Staphylococcus aureus subsp. aureus (MRSA) CCM 4750 (ATCC 43300); test: Antibacterial microdilution broth (EUCAST); assay type: cell-based; details: Staphylococcus aureus; 24h incubation; read-out: MIC MRSA
[12] = test system: Aspergillus flavus CCM 8363; test: Antifungal microdilution broth (EUCAST); details: Aspergillus flavus, CCM8363, 24 h, read-out: MIC AFla
[13] = test system: Lichtheimia corymbifera CCM 8077; test: Antifungal microdilution broth (EUCAST); details: Lichtheimia corymbifera, CCM8077, 24 h, read-out: MIC LC
[14] = test system: Enterococcus faecalis CCM 4224 (ATCC 29212); test: Antibacterial microdilution broth (EUCAST); assay type: cell-based; details: Enterococcus faecalis; 24h incubation; read-out: MIC EF
[15] = test system: Mycobacterium tuberculosis H37Ra ITM-M006710 (ATCC 9431); test: Antimycobacterial MIC, microdilution broth / Alamar Blue (resazurin); assay type: cell-based; details: Mycobacterium tuberculosis, 120 h, Middlebrook 7H9, resazurin after 120 h; read-out: Mtb H37Ra MIC
[16] = test system: Aspergillus fumigatus ATCC 204305; test: Antifungal microdilution broth (EUCAST); details: Aspergillus fumigatus, ATCC204305, 24 h, read-out: MIC AF
[17] = test system: Candida krusei CCM 8271 (ATCC 6258); test: Antifungal microdilution broth (EUCAST); details: Pichia kudriavzevii, 24 h, read-out: MIC CK
[18] = test system: M. kansasii DSM 44162 (ATCC 12478); test: Antimycobacterial MIC, microdilution broth / resazurin; assay type: cell-based; details: Mycobacterium kansasii, read-out: MIC M. kansasii
[19] = test system: Escherichia coli CCM 3954 (ATCC 25922); test: Antibacterial microdilution broth (EUCAST); assay type: cell-based; details: Escherichia coli; 24h incubation; read-out: MIC EC
[20] = test system: Staphylococcus aureus subsp. aureus CCM 4223 (ATCC 29213); test: Antibacterial microdilution broth (EUCAST); assay type: cell-based; details: Staphylococcus aureus; 24h incubation; read-out: MIC SA
[21] = RP-UHPLC lipophilicity parameter log k’w; assay type: physicochemical; details: for log k’w: RP-UHPLC, acetonitrile/water, log k extrapolated to 0% acetonitrile; for logkw: experimental lipophilicity parameter
Source text: Lipophilicity and water solubility of the drug candidates are important parameters as they are often directly related to their ADME properties in the organism. Lipophilicity is usually expressed as the logarithm of the partition coefficient in n-octanol/water (log P). Due to its laborious determination, especially in the HTS screening, other experimental methods such as RP-HPLC log k’w or purely computational approaches such as Clog P were proposed and have been established as reasonable estimators of true lipophilicity. To investigate the changes in lipophilicity upon introduction of oxazole in the title compounds, we determined the log k’w of all derivatives and compared respective values among the pairs.
The log k of the synthesized compounds was measured using the same instrument (single measurement per concentration), software, and column as was used in the purity evaluation. Working solutions were diluted as described above for purity determination. The log k parameter was calculated after the UHPLC measurements using isocratic mode with mobile phase acetonitrile (B)/water (A) in a set of concentrations of 40, 45, 50% and 20, 30, 40% B for subtype I and subtype II, respectively.

| SMILES | MIC [1] | MIC [3] | MIC [5] | MIC [6] | MIC [7] | MIC [8] | MIC [9] | MIC [10] | MIC [11] | MIC [12] | MIC [13] | MIC [14] | MIC [15] | melting point | MIC [16] | MIC [17] | MIC [19] | MIC [20] | log k’w [21] | logkw [21] | further results |
| --- | --- | --- | --- | --- | --- | --- | --- | --- | --- | --- | --- | --- | --- | --- | --- | --- | --- | --- | --- | --- | --- |
| O=C(Nc1ncco1)c1cnc(Cl)cn1 [Compound 9b] | 62.5 µM (≈ 14 µg/mL) | 250 µM (≈ 56.2 µg/mL) | > 500 µM | 62.5 µg/mL (≈ 278 µM) | > 500 µM | > 500 µM | > 500 µM | 500 µM (≈ 112 µg/mL) | > 500 µM | > 500 µM | 500 µM (≈ 112 µg/mL) | > 500 µM | 31.2 µg/mL (≈ 139 µM) | 160 to 164 °C | 500 µM (≈ 112 µg/mL) | 250 µM (≈ 56.2 µg/mL) | > 500 µM | > 500 µM | 0.958 | 0.958 | MIC ([2]; 96 h): 31.2 µg/mL (≈ 139 µM); MIC ([4]; resazurin after 72 h): 15.6 µg/mL (≈ 69.6 µM); MIC ([18]; resazurin after 96 h): < 3.91 µg/mL |
| Cc1cc(C(=O)Nc2nc(-c3ccccc3)co2)cc(Cl)n1 [Compound 16b] | 62.5 µM (≈ 19.6 µg/mL) | > 125 µM | 125 µM (≈ 39.2 µg/mL) | 31.2 µg/mL (≈ 99.6 µM) | > 125 µM | > 125 µM | > 125 µM | > 125 µM | 62.5 µM (≈ 19.6 µg/mL) | > 125 µM | > 125 µM | > 125 µM | 15.6 µg/mL (≈ 49.8 µM) | 83 to 86 °C | > 125 µM | > 125 µM | > 125 µM | 62.5 µM (≈ 19.6 µg/mL) | 2.251 | 2.251 | MIC ([2]; resazurin after 96 h): 7.81 µg/mL (≈ 24.9 µM); MIC ([4]; resazurin after 72 h): 7.81 µg/mL (≈ 24.9 µM); MIC ([18]; 96 h): 15.6 µg/mL (≈ 49.8 µM) |
| O=C(Nc1nc(-c2ccccc2)co1)c1cnc2ccccc2n1 [Compound 19b] | > 125 µM | > 125 µM | > 500 µM | ≥ 500 µg/mL | > 500 µM | > 500 µM | > 125 µM | > 125 µM | > 500 µM | > 125 µM | > 125 µM | > 500 µM | ≥ 500 µg/mL | 181 to 183 °C | > 125 µM | > 125 µM | > 500 µM | > 500 µM | 2.465 | 2.465 | MIC ([2]; resazurin after 96 h): 7.81 µg/mL (≈ 24.7 µM); MIC M. avium ([2]; resazurin after 96 h): strongly active; MIC ([4]; resazurin after 72 h): ≥ 500 µg/mL; MIC ([18]; resazurin after 96 h): 3.91 µg/mL (≈ 12.4 µM) |
| O=C(Nc1ncco1)c1cnccn1 [Compound 8b] | 500 µM (≈ 95.1 µg/mL) | > 500 µM | > 500 µM | ≥ 500 µg/mL | > 500 µM | > 500 µM | > 500 µM | > 500 µM | > 500 µM | > 500 µM | 500 µM (≈ 95.1 µg/mL) | > 500 µM | 31.2 µg/mL (≈ 164 µM) | 160 to 164 °C | > 500 µM | > 500 µM | > 500 µM | > 500 µM | 0.154 | 0.154 | MIC ([2]; resazurin after 96 h): 62.5 µg/mL (≈ 329 µM); MIC ([4]; 72 h): 31.2 µg/mL (≈ 164 µM); MIC ([18]; resazurin after 96 h): 15.6 µg/mL (≈ 82.2 µM) |
| O=C(Nc1nc(-c2ccccc2)cs1)c1cnc2ccccc2n1 [Compound 19a] | > 125 µM | > 125 µM | > 250 µM | ≥ 500 µg/mL | > 250 µM | > 250 µM | > 125 µM | > 125 µM | > 250 µM | > 125 µM | > 125 µM | > 250 µM | ≥ 500 µg/mL | 217 to 219 °C | > 125 µM | > 125 µM | > 250 µM | > 250 µM | 3.583 | 3.583 | MIC ([2]; resazurin after 96 h): ≥ 500 µg/mL; MIC ([4]; resazurin after 72 h): ≥ 500 µg/mL; MIC ([18]; resazurin after 96 h): ≥ 500 µg/mL |
